Assay results as given in patent publication US8198456B2, “Dihydropyridine derivatives as useful as protein kinase inhibitors” (Bayer Intellectual Property GmbH, priority 2006, dated 2012).

Biological target: T1, recombinant human c-MET kinase enzyme domain (Homo sapiens, UniProt P08581)
T1 construct: Recombinant c-Met kinase domain (amino acids 960-1390); His (N); made in house; host or cells: baculovirus expression system (insect cells; SF21 is named only for the alternative format)
Assay: c-MET receptor tyrosine kinase Homogeneous Time Resolved Fluorescence assay (HTRF)
Type: biochemical
Conditions: Biological Example 1 and/or Biological Example 2
Summary of the method: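 His-tagged c-Met kinase domain (aa 960-1390, baculovirus) phosphorylated biotinylated poly-Glu-Tyr (37 nM) with 20 μM ATP in HEPES pH 7.4, Mg/Mn, DTT, 1% DMSO, 20 min at ambient temperature, EDTA-stopped. HTRF read (PT66-Eu/streptavidin-XL665, 665/620 nm ratio) after 4 h; IC50 from eight 1:3.16 dilutions.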

T1 sequence (P08581 960-1390): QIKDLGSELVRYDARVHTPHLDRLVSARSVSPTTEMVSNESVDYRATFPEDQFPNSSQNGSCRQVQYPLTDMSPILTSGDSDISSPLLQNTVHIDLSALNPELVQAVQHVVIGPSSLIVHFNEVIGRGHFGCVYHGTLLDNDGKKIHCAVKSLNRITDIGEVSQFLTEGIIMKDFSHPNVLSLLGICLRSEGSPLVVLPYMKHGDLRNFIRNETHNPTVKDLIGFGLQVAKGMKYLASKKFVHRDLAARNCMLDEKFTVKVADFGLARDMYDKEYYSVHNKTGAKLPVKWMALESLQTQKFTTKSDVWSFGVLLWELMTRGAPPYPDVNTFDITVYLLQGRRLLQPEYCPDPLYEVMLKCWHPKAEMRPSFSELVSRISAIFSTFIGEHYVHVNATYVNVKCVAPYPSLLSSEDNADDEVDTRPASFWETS

SMILES	IC50 [µM]
CC1=C(C#N)C(c2ccc3[nH]nc(C(F)(F)F)c3c2)C(C#N)=C(C)N1 [compound 169, 1,4-dihydro-2,6-dimethyl-4-[3-(trifluoromethyl)-1H-indazol-5-yl]-3,5-pyridinedicarbonitrile]	0.5 to 2.5
CC1=C(C#N)C(c2ccc3[nH]nc(O)c3c2)C(C#N)=C(C)N1 [compound 176, 1,4-dihydro-4-(3-hydroxy-1H-indazol-5-yl)-2,6-dimethyl-3,5-pyridinedicarbonitrile]	0.5 to 2.5
CNC(=O)c1cccc(C2C(C#N)=C(C)NC(C)=C2C#N)n1 [compound 189, 3′,5′-dicyano-1′,4′-dihydro-N,2′,6′-trimethyl-[2,4′-bipyridine]-6-carboxamide]	0.5 to 2.5
CC1=C(C#N)C(c2cccc(C(=O)Nc3cccnc3)n2)C(C#N)=C(C)N1 [compound 190, 3′,5′-dicyano-1′,4′-dihydro-2′,6′-dimethyl-N-3-pyridinyl-[2,4′-bipyridine]-6-carboxamide]	0.1 to 0.5
CC1=C(C#N)C(c2cccc(C(=O)NCCCn3ccnc3)n2)C(C#N)=C(C)N1 [compound 191, 3′,5′-dicyano-1′,4′-dihydro-N-[3-(1H-imidazol-1-yl)propyl]-2′,6′-dimethyl-[2,4′-bipyridine]-6-carboxamide]	0.1 to 0.5
CC1=C(C#N)C(c2cnc3[nH]ncc3c2)C(C#N)=C(C)N1 [compound 204, 1,4-dihydro-2,6-dimethyl-4-(1H-pyrazolo[3,4-b]pyridin-5-yl)-3,5-pyridinedicarbonitrile]	< 0.1
COC(=O)c1cccc(C2C(C#N)=C(C)NC(c3ccccc3)=C2C#N)c1 (stereo not drawn) [compound 219, 3-(3,5-dicyano-1,4-dihydro-2-methyl-6-phenyl-4-pyridinyl)-benzoic acid, methyl ester]	< 0.1
COC(=O)c1cccc(C2C(C#N)=C(C)NC(C3CCCN(C(C)=O)C3)=C2C#N)c1 (stereo not drawn) [compound 229, 3-[2-(1-acetyl-3-piperidinyl)-3,5-dicyano-1,4-dihydro-6-methyl-4-pyridinyl]-benzoic acid, methyl ester]	0.1 to 0.5
COC(=O)c1cccc(C2C(C#N)=C(C)NC(C3CCCN(C(N)=O)C3)=C2C#N)c1 (stereo not drawn) [compound 230, 3-[2-[1-(aminocarbonyl)-3-piperidinyl]-3,5-dicyano-1,4-dihydro-6-methyl-4-pyridinyl]-benzoic acid, methyl ester]	0.1 to 0.5
COC(=O)c1cccc(C2C(C#N)=C(C)NC(c3cccc([N+](=O)[O-])c3)=C2C#N)c1 (stereo not drawn) [compound 232, 3-[3,5-dicyano-1,4-dihydro-2-methyl-6-(3-nitrophenyl)-4-pyridinyl]-benzoic acid, methyl ester]	0.5 to 2.5
COC(=O)c1cccc(C2C(C#N)=C(C)NC(c3ccc([N+](=O)[O-])cc3)=C2C#N)c1 (stereo not drawn) [compound 233, 3-[3,5-dicyano-1,4-dihydro-2-methyl-6-(4-nitrophenyl)-4-pyridinyl]-benzoic acid, methyl ester]	0.5 to 2.5
COC(=O)c1cccc(C2C(C#N)=C(C)NC(c3ccc(O)cc3)=C2C#N)c1 (stereo not drawn) [compound 234, 3-[3,5-dicyano-1,4-dihydro-2-(4-hydroxyphenyl)-6-methyl-4-pyridinyl]-benzoic acid, methyl ester]	0.1 to 0.5
COC(=O)c1cccc(C2C(C#N)=C(C)NC(c3cccc(N)c3)=C2C#N)c1 (stereo not drawn) [compound 235, 3-[2-(3-aminophenyl)-3,5-dicyano-1,4-dihydro-6-methyl-4-pyridinyl]-benzoic acid, methyl ester]	0.1 to 0.5
COC(=O)c1cccc(C2C(C#N)=C(C)NC(c3ccc(N)cc3)=C2C#N)c1 (stereo not drawn) [compound 236, 3-[2-(4-aminophenyl)-3,5-dicyano-1,4-dihydro-6-methyl-4-pyridinyl]-benzoic acid, methyl ester]	0.1 to 0.5
CNC(=O)c1cccc(C2C(C#N)=C(C)NC(c3ccc(N)cc3)=C2C#N)c1 (stereo not drawn) [compound 238, 3-[2-(4-aminophenyl)-3,5-dicyano-1,4-dihydro-6-methyl-4-pyridinyl]-N-methyl-benzamide]	0.5 to 2.5
CNC(=O)c1cccc(C2C(C#N)=C(C)NC(c3ccc(O)cc3)=C2C#N)c1 (stereo not drawn) [compound 239, 3-[3,5-dicyano-1,4-dihydro-2-(4-hydroxyphenyl)-6-methyl-4-pyridinyl]-N-methyl-benzamide]	0.5 to 2.5
CNC(=O)c1cccc(C2C(C#N)=C(C)NC(c3ccccc3)=C2C#N)c1 (stereo not drawn) [compound 240, 3-(3,5-dicyano-1,4-dihydro-2-methyl-6-phenyl-4-pyridinyl)-N-methyl-benzamide]	0.5 to 2.5
CC1=C(C#N)C(c2cccc(C(=O)NCCCn3ccnc3)c2)C(C#N)=C(c2cccc(N)c2)N1 (stereo not drawn) [compound 246, 3-[2-(3-aminophenyl)-3,5-dicyano-1,4-dihydro-6-methyl-4-pyridinyl]-N-[3-(1H-imidazol-1-yl)propyl]-benzamide]	0.1 to 0.5
CC1=C(C#N)C(c2ccc3[nH]ncc3c2)C(C#N)=C(c2ccccc2)N1 (stereo not drawn) [compound 249, 1,4-dihydro-4-(1H-indazol-5-yl)-2-methyl-6-phenyl-3,5-pyridinedicarbonitrile]	< 0.1
CC1=C(C#N)C(c2ccc3[nH]ncc3c2)C(C#N)=C(c2cccc([N+](=O)[O-])c2)N1 (stereo not drawn) [compound 250, 1,4-dihydro-4-(1H-indazol-5-yl)-2-methyl-6-(3-nitrophenyl)-3,5-pyridinedicarbonitrile]	< 0.1
CC1=C(C#N)C(c2ccc3[nH]ncc3c2)C(C#N)=C(C2CCCN(C(=O)OCc3ccccc3)C2)N1 (stereo not drawn) [compound 251, 3-[3,5-dicyano-1,4-dihydro-4-(1H-indazol-5-yl)-6-methyl-2-pyridinyl]-1-piperidinecarboxylic acid phenylmethyl ester]	0.5 to 2.5
CC1=C(C#N)C(c2ccc3[nH]ncc3c2)C(C#N)=C(c2cccc(N)c2)N1 (stereo not drawn) [compound 252, 2-(3-aminophenyl)-1,4-dihydro-4-(1H-indazol-5-yl)-6-methyl-3,5-pyridinedicarbonitrile]	< 0.1
CC(=O)Nc1cccc(C2=C(C#N)C(c3ccc4[nH]ncc4c3)C(C#N)=C(C)N2)c1 (stereo not drawn) [compound 253, N-[3-[3,5-dicyano-1,4-dihydro-4-(1H-indazol-5-yl)-6-methyl-2-pyridinyl]-phenyl]-acetamide]	< 0.1

Next, values leading:

IC50 [µM]	SMILES
< 0.1	CC1=C(C#N)C(c2ccc3[nH]nc(/C(C)=N/O)c3c2)C(C#N)=C(C)N1 [compound 160, 1,4-dihydro-4-[3-[(1E)-1-(hydroxyimino)ethyl]-1H-indazol-5-yl]-2,6-dimethyl-3,5-pyridinedicarbonitrile]
< 0.1	CC1=C(C#N)C(c2ccc3[nH]nc(NCc4ccc(N5CCOCC5)cc4)c3c2)C(C#N)=C(C)N1 [compound 163, 1,4-dihydro-2,6-dimethyl-4-[3-[[[4-(4-morpholinyl)phenyl]methyl]amino]-1H-indazol-5-yl]-3,5-pyridinedicarbonitrile]
< 0.1	CC1=C(C#N)C(c2ccc3[nH]nc(N4CCNCC4)c3c2)C(C#N)=C(C)N1 [compound 164, 1,4-dihydro-2,6-dimethyl-4-[3-(1-piperazinyl)-1H-indazol-5-yl]-3,5-pyridinedicarbonitrile]
< 0.1	CC1=C(C#N)C(c2ccc3[nH]nc(CN4CCN(CCO)CC4)c3c2)C(C#N)=C(C)N1 [compound 166, 1,4-dihydro-4-[3-[[4-(2-hydroxyethyl)-1-piperazinyl]methyl]-1H-indazol-5-yl]-2,6-dimethyl-3,5-pyridinedicarbonitrile]
< 0.1	CC1=C(C#N)C(c2ccc3[nH]nc(NCc4ccc(C(=O)N5CCC(O)C5)cc4)c3c2)C(C#N)=C(C)N1 (stereo not drawn) [compound 168, 1,4-dihydro-4-[3-[[[4-[(3-hydroxy-1-pyrrolidinyl)carbonyl]phenyl]methyl]amino]-1H-indazol-5-yl]-2,6-dimethyl-3,5-pyridinedicarbonitrile]
< 0.1	CC1=C(C#N)C(c2ccc3[nH]nc(-c4ncc[nH]4)c3c2)C(C#N)=C(C)N1 [compound 170, 1,4-dihydro-4-[3-(1H-imidazol-2-yl)-1H-indazol-5-yl]-2,6-dimethyl-3,5-pyridinedicarbonitrile]
< 0.1	CC1=C(C#N)C(c2ccc3[nH]nc(NCc4ccc(N(C)CCO)cc4)c3c2)C(C#N)=C(C)N1 [compound 172, 1,4-dihydro-4-[3-[[[4-[(2-hydroxyethyl)methylamino]phenyl]methyl]amino]-H-indazol-5-yl]-2,6-dimethyl-3,5-pyridinedicarbonitrile]
< 0.1	CC1=C(C#N)C(c2ccc3[nH]nc(-c4cn[nH]c4)c3c2)C(C#N)=C(C)N1 [compound 173, 1,4-dihydro-2,6-dimethyl-4-[3-(1H-pyrazol-4-yl)-1H-indazol-5-yl]-3,5-pyridinedicarbonitrile]
< 0.1	CC1=C(C#N)C(c2ccc3[nH]nc(-c4cnn(C)c4)c3c2)C(C#N)=C(C)N1 [compound 174, 1,4-dihydro-2,6-dimethyl-4-[3-(1-methyl-1H-pyrazol-4-yl)-1H-indazol-5-yl]-3,5-pyridinedicarbonitrile]
< 0.1	CC1=C(C#N)C(c2ccc3[nH]nc(-c4ccon4)c3c2)C(C#N)=C(C)N1 [compound 175, 1,4-dihydro-4-[3-(3-isoxazolyl)-1H-indazol-5-yl]-2,6-dimethyl-3,5-pyridinedicarbonitrile]
< 0.1	CC1=C(C#N)C(c2ccc3[nH]nc(-c4cnco4)c3c2)C(C#N)=C(C)N1 [compound 177, 1,4-dihydro-2,6-dimethyl-4-[3-(5-oxazolyl)-1H-indazol-5-yl]-3,5-pyridinedicarbonitrile]
< 0.1	CC1=C(C#N)C(c2ccc3[nH]nc(-c4cccs4)c3c2)C(C#N)=C(C)N1 [compound 178, 1,4-dihydro-2,6-dimethyl-4-[3-(2-thienyl)-1H-indazol-5-yl]-3,5-pyridinedicarbonitrile]
< 0.1	CC1=C(C#N)C(c2cccc(C(=O)Nc3ccccn3)n2)C(C#N)=C(C)N1 [compound 192, 3′,5′-dicyano-1′,4′-dihydro-2′,6′-dimethyl-N-2-pyridinyl-[2,4′-bipyridine]-6-carboxamide]
